Data published in patent US20180148418A1, “AMIDO-SUBSTITUTED CYCLOHEXANE DERIVATIVES” (Bayer Pharma Aktiengesellschaft, priority 2015, published 2018).
Blank lines part the entries; values can stand above or below the compound they belong to.

Experiments:
[1] = molecular target: T1, TNKS2 (Homo sapiens, UniProt Q9H2K2); test: TNKS2 Assay B (auto-parsylation, [3H]-NAD+ SPA); format: biochemical; conditions: 6 nM TNKS2, auto-parsylation, over night at room temperature
T1 construct: purchased BPS Bioscience, San Diego, USA 80572 (TNKS2 Histone Ribosylation Assay Kit)
T1 sequence (Q9H2K2 1-1166): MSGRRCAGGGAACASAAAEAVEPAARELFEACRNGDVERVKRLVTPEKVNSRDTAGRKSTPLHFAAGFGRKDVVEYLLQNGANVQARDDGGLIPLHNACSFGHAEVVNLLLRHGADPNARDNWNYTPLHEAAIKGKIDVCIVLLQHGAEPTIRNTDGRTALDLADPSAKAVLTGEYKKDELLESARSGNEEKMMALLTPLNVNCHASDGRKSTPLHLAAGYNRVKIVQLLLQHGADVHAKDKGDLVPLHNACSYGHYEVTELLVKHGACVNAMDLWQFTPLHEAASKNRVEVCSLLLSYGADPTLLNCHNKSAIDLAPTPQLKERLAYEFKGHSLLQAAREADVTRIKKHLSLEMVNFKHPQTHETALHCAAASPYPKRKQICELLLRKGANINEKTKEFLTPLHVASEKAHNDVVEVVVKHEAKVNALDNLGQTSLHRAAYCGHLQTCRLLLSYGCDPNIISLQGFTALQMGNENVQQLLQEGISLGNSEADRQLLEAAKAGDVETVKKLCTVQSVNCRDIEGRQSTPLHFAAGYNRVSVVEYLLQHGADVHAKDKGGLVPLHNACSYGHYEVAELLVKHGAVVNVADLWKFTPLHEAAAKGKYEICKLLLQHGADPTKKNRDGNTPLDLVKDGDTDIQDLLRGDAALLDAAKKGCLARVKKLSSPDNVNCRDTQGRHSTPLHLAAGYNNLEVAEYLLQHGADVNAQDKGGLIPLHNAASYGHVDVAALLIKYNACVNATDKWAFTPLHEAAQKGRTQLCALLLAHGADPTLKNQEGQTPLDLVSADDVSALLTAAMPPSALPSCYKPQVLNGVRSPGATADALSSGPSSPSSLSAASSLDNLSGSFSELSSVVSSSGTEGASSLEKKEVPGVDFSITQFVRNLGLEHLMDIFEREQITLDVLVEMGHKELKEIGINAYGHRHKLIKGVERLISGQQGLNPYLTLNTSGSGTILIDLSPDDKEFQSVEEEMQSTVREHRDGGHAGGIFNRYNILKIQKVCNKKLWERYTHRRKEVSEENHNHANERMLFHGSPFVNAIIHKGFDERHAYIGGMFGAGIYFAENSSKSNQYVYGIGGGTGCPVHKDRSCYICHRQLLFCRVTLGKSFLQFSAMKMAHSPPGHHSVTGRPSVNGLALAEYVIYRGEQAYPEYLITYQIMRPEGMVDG

[2] = tested on: wildtype Wnt signaling cascade; test: HEK293 TOP assay (Super TopFlash luciferase reporter, Wnt-3a stimulated); format: cell-based; conditions: Homo sapiens, HEK293, 16 h, HEK293 TOP reporter cells, Wnt3a at EC50, 16 hours
Outline: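 HEK293 cells stably carrying Super TopFlash (TOP) run in parallel with FOP cells, 10000/well plated 24 h ahead, stimulated with recombinant human Wnt-3a. Compounds tested 50 μM to 15 nM in 3.16-fold steps in CAFTY buffer pH 7.4 with 2 mM Ca^2+ and 0.01% BSA; luciferase read-out.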

SMILES: COC[C@@H](C)NC(=O)c1nc[nH]c1C(=O)N[C@H]1CC[C@H](C(=O)Nc2ccc(F)cc2Cl)CC1 [Example 84, N^5-{trans-4-[(2-chloro-4-fluorophenyl)carbamoyl]cyclohexyl}-N^4-[(2R)-1-methoxypropan-2-yl]-1H-imidazole-4,5-dicarboxamide]
- IC50 [1]: 230 nM
- IC50 [2]: 230 nM

SMILES: COC(C)(C)CNC(=O)c1nc[nH]c1C(=O)N[C@H]1CC[C@H](C(=O)Nc2cc(F)c(F)cc2Cl)CC1 [Example 85, N^5-{trans-4-[(2-chloro-4,5-difluorophenyl)carbamoyl]cyclohexyl}-N^4-(2-methoxy-2-methylpropyl)-1H-imidazole-4,5-dicarboxamide]
- IC50 [1]: 23 nM
- IC50 [2]: 130 nM

SMILES: O=C(NCC1CCCO1)c1nc[nH]c1C(=O)N[C@H]1CC[C@H](C(=O)Nc2cc(F)c(F)cc2Cl)CC1 (stereo partly drawn) [Example 86, N^5-{trans-4-[(2-chloro-4,5-difluorophenyl)carbamoyl]cyclohexyl}-N^4-(tetrahydrofuran-2-ylmethyl)-1H-imidazole-4,5-dicarboxamide]
- IC50 [1]: 22 nM
- IC50 [2]: 94 nM

SMILES: COCC(C)NC(=O)c1nc[nH]c1C(=O)N[C@H]1CC[C@H](C(=O)Nc2cc(F)c(F)cc2Cl)CC1 (stereo partly drawn) [Example 87, N^5-{trans-4-[(2-chloro-4,5-difluorophenyl)carbamoyl]cyclohexyl}-N^4-(1-methoxypropan-2-yl)-1H-imidazole-4,5-dicarboxamide]
- IC50 [1]: 51 nM
- IC50 [2]: 60 nM

SMILES: CNC(=O)c1nc[nH]c1C(=O)N[C@H]1CC[C@H](C(=O)Nc2cc(N3CCOCC3)ccc2Cl)CC1 [Example 88, N^5-(trans-4-{[2-chloro-5-(morpholin-4-yl)phenyl]carbamoyl}cyclohexyl)-N^4-methyl-1H-imidazole-4,5-dicarboxamide]
- IC50 [1]: 7100 nM
- IC50 [2]: 2400 nM

SMILES: O=C(NCC1CCCO1)c1nc[nH]c1C(=O)N[C@H]1CC[C@H](C(=O)Nc2cc(N3CCOCC3)ccc2Cl)CC1 (stereo partly drawn) [Example 89, N^5-(trans-4-{[2-chloro-5-(morpholin-4-yl)phenyl]carbamoyl}cyclohexyl)-N^4-(tetrahydrofuran-2-ylmethyl)-1H-imidazole-4,5-dicarboxamide]
- IC50 [1]: 1600 nM
- IC50 [2]: 1200 nM

SMILES: COC(C)(C)CNC(=O)c1nc[nH]c1C(=O)N[C@H]1CC[C@H](C(=O)Nc2cc(N3CCOCC3)ccc2Cl)CC1 [Example 90, N^5-(trans-4-{[2-chloro-5-(morpholin-4-yl)phenyl]carbamoyl}cyclohexyl)-N^4-(2-methoxy-2-methylpropyl)-1H-imidazole-4,5-dicarboxamide]
- IC50 [1]: 2700 nM
- IC50 [2]: 1900 nM

SMILES: CC(C)(O)CNC(=O)c1nc[nH]c1C(=O)N[C@H]1CC[C@@]2(CCN(c3cccc(Cl)c3)C2=O)CC1 [Example 284, N^5-[(trans)-2-(3-chlorophenyl)-1-oxo-2-azaspiro[4.5]dec-8-yl]-N^4-(2-hydroxy-2-methylpropyl)-1H-imidazole-4,5-dicarboxamide]
- IC50 [1]: 220 nM
- IC50 [2]: 100 nM

The next lines start with the values.

- IC50 [1]: 380 nM
- IC50 [2]: 92 nM
SMILES: COCC(C)NC(=O)c1nc[nH]c1C(=O)N[C@H]1CC[C@@]2(CCN(c3cccc(Cl)c3)C2=O)CC1 (stereo partly drawn) [Example 285, N^5-[(trans)-2-(3-chlorophenyl)-1-oxo-2-azaspiro[4.5]dec-8-yl]-N^4-(1-methoxypropan-2-yl)-1H-imidazole-4,5-dicarboxamide]

- IC50 [1]: 4400 nM
- IC50 [2]: 28 nM
SMILES: O=C(N[C@H]1CC[C@@]2(CCN(c3cccc(Cl)c3)C2=O)CC1)c1[nH]cnc1C(=O)N1CCOCC1 [Example 286, N-[(trans)-2-(3-chlorophenyl)-1-oxo-2-azaspiro[4.5]dec-8-yl]-4-(morpholin-4-ylcarbonyl)-1H-imidazole-5-carboxamide]

- IC50 [1]: 2.8 nM
- IC50 [2]: 1.4 nM
SMILES: CNC(=O)c1nc[nH]c1C(=O)N[C@H]1CC[C@@]2(CCN(c3cc(C)c(F)cc3Cl)C2=O)CC1 [Example 288, N^5-[(trans)-2-(2-chloro-4-fluoro-5-methylphenyl)-1-oxo-2-azaspiro[4.5]dec-8-yl]-N^4-methyl-1H-imidazole-4,5-dicarboxamide]

- IC50 [1]: 2.9 nM
- IC50 [2]: 1.8 nM
SMILES: CCNC(=O)c1nc[nH]c1C(=O)N[C@H]1CC[C@@]2(CCN(c3cc(C)c(F)cc3Cl)C2=O)CC1 [Example 289, N^5-[(trans)-2-(2-chloro-4-fluoro-5-methylphenyl)-1-oxo-2-azaspiro[4.5]dec-8-yl]-N^4-ethyl-1H-imidazole-4,5-dicarboxamide]

- IC50 [1]: 1.7 nM
- IC50 [2]: 4.7 nM
SMILES: Cc1cc(N2CC[C@]3(CC[C@@H](NC(=O)c4[nH]cnc4C(=O)NCCN4CCC(C)CC4)CC3)C2=O)c(Cl)cc1F [Example 290, N^5-[(trans)-2-(2-chloro-4-fluoro-5-methylphenyl)-1-oxo-2-azaspiro[4.5]dec-8-yl]-N^4-[2-(4-methylpiperidin-1-yl)ethyl]-1H-imidazole-4,5-dicarboxamide]

- IC50 [1]: 7.6 nM
- IC50 [2]: 6.9 nM
SMILES: Cc1cc(N2CC[C@]3(CC[C@@H](NC(=O)c4[nH]cnc4C(=O)NCC(F)(F)F)CC3)C2=O)c(Cl)cc1F [Example 297, N^5-[(trans)-2-(2-chloro-4-fluoro-5-methylphenyl)-1-oxo-2-azaspiro[4.5]dec-8-yl]-N^4-(2,2,2-trifluoroethyl)-1H-imidazole-4,5-dicarboxamide]

- IC50 [1]: 2 nM
- IC50 [2]: 4.9 nM
SMILES: O=C(N[C@H]1CC[C@@]2(CCN(c3cc(F)c(F)cc3Cl)C2=O)CC1)c1cnc2cccnn12 [Example 298, N-[(trans)-2-(2-chloro-4,5-difluorophenyl)-1-oxo-2-azaspiro[4.5]dec-8-yl]imidazo[1,2-b]pyridazine-3-carboxamide]

- IC50 [1]: 2 nM
- IC50 [2]: 0.9 nM
SMILES: Cc1cc(C)n2ncc(C(=O)N[C@H]3CC[C@@]4(CCN(c5cc(F)c(F)cc5Cl)C4=O)CC3)c2n1 [Example 299, N-[(trans)-2-(2-chloro-4,5-difluorophenyl)-1-oxo-2-azaspiro[4.5]dec-8-yl]-5,7-dimethylpyrazolo[1,5-a]pyrimidine-3-carboxamide]

- IC50 [1]: 45 nM
- IC50 [2]: 18 nM
SMILES: Cc1cc(N2CCC[C@]3(CC[C@@H](NC(=O)c4cnn5cccnc45)CC3)C2=O)c(Cl)cc1F [Example 300, N-[(trans)-2-(2-chloro-4-fluoro-5-methylphenyl)-1-oxo-2-azaspiro[5.5]undec-9-yl]pyrazolo[1,5-a]pyrimidine-3-carboxamide]

- IC50 [1]: 80 nM
- IC50 [2]: 28 nM
SMILES: Cc1cc(N2CCC[C@]3(CC[C@@H](NC(=O)c4cnc5cccnn45)CC3)C2=O)c(Cl)cc1F [Example 301, N-[(trans)-2-(2-chloro-4-fluoro-5-methylphenyl)-1-oxo-2-azaspiro[5.5]undec-9-yl]imidazo[1,2-b]pyridazine-3-carboxamide]

- IC50 [1]: 69 nM
- IC50 [2]: 42 nM
SMILES: Cc1cc(C)n2ncc(C(=O)N[C@H]3CC[C@@]4(CCCN(c5cc(C)c(F)cc5Cl)C4=O)CC3)c2n1 [Example 302, N-[(trans)-2-(2-chloro-4-fluoro-5-methylphenyl)-1-oxo-2-azaspiro[5.5]undec-9-yl]-5,7-dimethylpyrazolo[1,5-a]pyrimidine-3-carboxamide]

- IC50 [1]: 4.9 nM
- IC50 [2]: 9.5 nM
SMILES: COCCNC(=O)c1nc[nH]c1C(=O)N[C@H]1CC[C@@]2(CCN(c3cc(C)c(F)cc3Cl)C2=O)CC1 [Example 334, N^5-[(trans)-2-(2-chloro-4-fluoro-5-methylphenyl)-1-oxo-2-azaspiro[4.5]dec-8-yl]-N^4-(2-methoxyethyl)-1H-imidazole-4,5-dicarboxamide]
